According to ChEMBL document CHEMBL1127282, “Structure-activity relationships in the amino acid sidechain of L-692,429” (Bioorg Med Chem Lett, 1994):
The source made the active and inactive calls. No cut-off for these calls is given here.

How the values were obtained:
[1] = biological target: Growth hormone secretagogue receptor type 1 (Rattus norvegicus) (UniProt O08725); assay: In vitro effective dose was measured for the growth hormone release in rat pituitary cells; format: functional, cell-based; conditions: Pituitary gland cell
Sequence of Growth hormone secretagogue receptor type 1 (Rattus norvegicus) (O08725 whole entry): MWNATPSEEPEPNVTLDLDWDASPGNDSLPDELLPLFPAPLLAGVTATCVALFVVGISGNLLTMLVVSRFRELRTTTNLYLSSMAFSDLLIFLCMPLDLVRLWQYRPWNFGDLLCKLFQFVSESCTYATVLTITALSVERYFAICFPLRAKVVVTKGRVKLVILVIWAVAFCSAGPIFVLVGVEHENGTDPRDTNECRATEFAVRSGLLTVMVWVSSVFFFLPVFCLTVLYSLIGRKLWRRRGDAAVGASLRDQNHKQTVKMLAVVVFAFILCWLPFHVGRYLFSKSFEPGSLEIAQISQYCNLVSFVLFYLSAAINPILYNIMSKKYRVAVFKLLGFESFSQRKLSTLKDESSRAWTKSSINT

[2] = pKa value was determined; format: physicochemical
Rattus norvegicus = species: Rattus norvegicus; assay: In vitro effective dose was measured for the growth hormone release in rat pituitary cells; Inactive at 20 ug/mL; format: functional, cell-based; conditions: Pituitary gland cell

Compound | ED50 [1] | other results
CC(C)(CC(=O)N[C@@H]1CCc2ccccc2N(Cc2ccc(-c3ccccc3-c3nn[nH]n3)cc2)C1=O)NCCN | 230 µM | 
CC(C)(N)CCC(=O)N[C@@H]1CCc2ccccc2N(Cc2ccc(-c3ccccc3-c3nn[nH]n3)cc2)C1=O | 3 µM | 
C[C@@H](O)CNC(C)(C)CC(=O)N[C@@H]1CCc2ccccc2N(Cc2ccc(-c3ccccc3-c3nnn[nH]3)cc2)C1=O [L-692585] |  | pKa [2]: 9.1
CC(C)(C)CC(=O)N[C@@H]1CCc2ccccc2N(Cc2ccc(-c3ccccc3-c3nn[nH]n3)cc2)C1=O |  | ED50 (Rattus norvegicus): inactive
CC(=O)NC(C)(C)CC(=O)N[C@@H]1CCc2ccccc2N(Cc2ccc(-c3ccccc3-c3nn[nH]n3)cc2)C1=O |  | ED50 (Rattus norvegicus): inactive
CC(=O)N[C@@H]1CCc2ccccc2N(Cc2ccc(-c3ccccc3-c3nn[nH]n3)cc2)C1=O |  | ED50 (Rattus norvegicus): inactive
CC(C)(N)CC(=O)N[C@@H]1CCc2ccccc2N(Cc2ccc(-c3ccccc3-c3nnn[nH]3)cc2)C1=O |  | pKa [2]: 9.3
CC[C@@H](N)C(=O)N[C@@H]1CCc2ccccc2N(Cc2ccc(-c3ccccc3-c3nn[nH]n3)cc2)C1=O | 0.3 µM | 
N[C@H](Cc1ccccc1)C(=O)N[C@@H]1CCc2ccccc2N(Cc2ccc(-c3ccccc3-c3nn[nH]n3)cc2)C1=O | 2 µM | 
C[C@@H](N)C(=O)N[C@@H]1CCc2ccccc2N(Cc2ccc(-c3ccccc3-c3nn[nH]n3)cc2)C1=O (stereo in doubt; 12) | 0.1 µM | 
CC(C)(CC(=O)N[C@@H]1CCc2ccccc2N(Cc2ccc(-c3ccccc3-c3nn[nH]n3)cc2)C1=O)NCc1ccccc1 | 65 µM | 
CC(C)(CC(=O)N[C@@H]1CCc2ccccc2N(Cc2ccc(-c3ccccc3-c3nn[nH]n3)cc2)C1=O)NC(=O)OC(C)(C)C |  | ED50 (Rattus norvegicus): inactive

Now from value to compound, other results behind:

ED50 [1] | Compound | other results
85 µM | CC(C)CNC(C)(C)CC(=O)N[C@@H]1CCc2ccccc2N(Cc2ccc(-c3ccccc3-c3nn[nH]n3)cc2)C1=O | 
3 µM | C[C@@H](O)CNC(C)(C)CC(=O)N[C@@H]1CCc2ccccc2N(Cc2ccc(-c3ccccc3-c3nn[nH]n3)cc2)C1=O | 
7 µM | C[C@H](O)CNC(C)(C)CC(=O)N[C@@H]1CCc2ccccc2N(Cc2ccc(-c3ccccc3-c3nn[nH]n3)cc2)C1=O | 
2 µM | NCCC(=O)N[C@@H]1CCc2ccccc2N(Cc2ccc(-c3ccccc3-c3nn[nH]n3)cc2)C1=O | 
30 µM | CC(C)(CC(=O)N[C@@H]1CCc2ccccc2N(Cc2ccc(-c3ccccc3-c3nn[nH]n3)cc2)C1=O)NCCO | 
0.06 µM | CC(C)(N)CC(=O)N[C@@H]1CCc2ccccc2N(Cc2ccc(-c3ccccc3-c3nn[nH]n3)cc2)C1=O | 
9 µM | N[C@@H]1CCc2ccccc2N(Cc2ccc(-c3ccccc3-c3nn[nH]n3)cc2)C1=O | 
9 µM | NCC(=O)N[C@@H]1CCc2ccccc2N(Cc2ccc(-c3ccccc3-c3nn[nH]n3)cc2)C1=O | 
0.03 µM | CC(C)(N)C(=O)N[C@@H]1CCc2ccccc2N(Cc2ccc(-c3ccccc3-c3nn[nH]n3)cc2)C1=O | pKa [2]: 7.9
3 µM | CC(C)(CN)C(=O)N[C@@H]1CCc2ccccc2N(Cc2ccc(-c3ccccc3-c3nn[nH]n3)cc2)C1=O | 
50 µM | CCCNC(C)(C)CC(=O)N[C@@H]1CCc2ccccc2N(Cc2ccc(-c3ccccc3-c3nn[nH]n3)cc2)C1=O | 
1.4 µM | C[C@@H](N)C(=O)N[C@@H]1CCc2ccccc2N(Cc2ccc(-c3ccccc3-c3nn[nH]n3)cc2)C1=O (stereo in doubt; 11) | 
